Active and inactive are the calls of the source. No cut-off for these calls is given here.

Format in all cases: functional, cell-based
Assay [1] relates to EA.hy 926. In words: Inhibition of tube formation in human EAhy926 cells at 50 uM after 24 hrs by phase-contrast microscopy.
The subject of assay [2] is EA.hy 926. In words: Inhibition of tube formation in human EAhy926 cells at 10 uM pre-incubated for 12 hrs measured after 24 hrs by phase-contrast microscopy.
The subject of assay [3] is EA.hy 926. In words: Inhibition of tube formation in human EAhy926 cells at 25 uM after 24 hrs by phase-contrast microscopy.
In assay [4] the test system is EA.hy 926. In words: Inhibition of tube formation in human EAhy926 cells after 24 hrs by phase-contrast microscopy.
Assay [5] deals with EA.hy 926. In words: Inhibition of tube formation in human EAhy926 cells at 40 uM after 24 hrs by phase-contrast microscopy.
Assay [6] concerns EA.hy 926. In words: Inhibition of tube formation in human EAhy926 cells at 20 uM after 24 hrs by phase-contrast microscopy.

Take `CC/C=C\C/C=C\C/C=C\C/C=C\C/C=C\CCCC(=O)O`: the outcome with EA.hy 926 [1] was inactive.

As to `Cc1cccc(Nc2cc(Cl)nc(SCC(=O)O)n2)c1C`, the result with EA.hy 926 [2] was Active.

As for `CCCCC/C=C/C=C/C(O)CCCCCCCC(=O)O` (stereo not given), the result with EA.hy 926 [3] was Active.

For the compound `CCCCC/C=C\C=C\C(O)C/C=C\C/C=C\C/C=C\CCCCC(=O)O` (stereo not given), the Activity entry in the assay with EA.hy 926 [4] was “Dose-dependent effect”. In addition, in the assay on EA.hy 926 [2], the outcome was Active.

`CC1(COc2ccc(CC3SC(=O)NC3=O)cc2)CCCCC1` (stereo not given): the outcome in the assay with EA.hy 926 [2] was Active.

With `CCCCC/C=C\C[C@@H](O)/C=C/C=C/C=C\[C@@H](O)CCCC(=O)O`, the result with EA.hy 926 [2] was Active.

Consider `CC/C=C\C/C=C\C/C=C\C/C=C\C/C=C\C/C=C\CCC(=O)O`, for which the result with EA.hy 926 [1] was inactive.

On to `CCCCC/C=C\C=C\C(O)C/C=C\C/C=C\CCCC(=O)O` (stereo not given), for which the outcome in the assay on EA.hy 926 [5] and in the assay with EA.hy 926 [6] was Active.
